Like-named read-outs stand apart in the source and are kept apart here.
Legend:
α-glucosidase I = biological target: T1, α-glucosidase I (Rattus norvegicus, UniProt O88941); assay: In vitro inhibition of purified α-glucosidase I, 2-AA-labeled FOS substrates, HPLC; type: biochemical
T1 construct: Purified α-glucosidase I and II were purified from rat liver by known methods; from tissue; host or cells: rat liver
T1 sequence (O88941 1-834): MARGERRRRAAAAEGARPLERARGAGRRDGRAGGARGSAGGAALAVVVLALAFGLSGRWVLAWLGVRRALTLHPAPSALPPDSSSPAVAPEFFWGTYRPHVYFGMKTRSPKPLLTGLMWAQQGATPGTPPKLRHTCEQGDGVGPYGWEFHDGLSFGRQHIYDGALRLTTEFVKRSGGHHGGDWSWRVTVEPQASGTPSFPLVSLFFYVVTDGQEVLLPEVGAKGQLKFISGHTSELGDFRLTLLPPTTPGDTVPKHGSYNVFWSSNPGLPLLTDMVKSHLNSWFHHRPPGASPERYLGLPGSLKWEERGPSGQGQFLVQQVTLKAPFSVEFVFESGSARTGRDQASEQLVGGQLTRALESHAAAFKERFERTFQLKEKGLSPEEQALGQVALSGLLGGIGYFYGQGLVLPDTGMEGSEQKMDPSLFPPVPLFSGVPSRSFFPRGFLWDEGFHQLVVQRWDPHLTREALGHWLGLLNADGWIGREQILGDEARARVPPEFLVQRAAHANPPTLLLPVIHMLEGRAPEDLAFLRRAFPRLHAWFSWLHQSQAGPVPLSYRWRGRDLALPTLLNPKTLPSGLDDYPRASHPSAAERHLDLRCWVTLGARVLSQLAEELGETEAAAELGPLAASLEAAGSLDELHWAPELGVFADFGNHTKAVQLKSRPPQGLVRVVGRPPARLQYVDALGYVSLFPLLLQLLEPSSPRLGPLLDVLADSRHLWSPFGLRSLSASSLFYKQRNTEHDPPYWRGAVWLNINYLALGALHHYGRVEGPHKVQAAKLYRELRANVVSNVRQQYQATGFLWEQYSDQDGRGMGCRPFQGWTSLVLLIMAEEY
Description: (§1) All chromatography was performed at 30° C. The first solvent, solvent A, was acetonitrile and the second solvent, solvent B, was Milli-Q water. […] Samples (<50 μl) were injected in Milli-Q water/acetonitrile (3/7, v/v). All chromatography was controlled, including data collection and processing, using Waters Empower software. Glucose units were determined, following comparison with a 2-AA-labeled glucose oligomer ladder (derived from a partial hydrolysate of dextran) external standard using Peak Time software (developed in-house).
Purified α-glucosidase I and II were purified from rat liver by known methods. […] 2-AA-labeled FOS were isolated and purified as substrates for either α-glucosidase I or II. Fluorescently-labeled substrates Glc1Man5GlcNAc1 (G1M5N), Glc2Man5GlcNAc1 (G2M5N), Glc3Man5GlcNAc1 (G3M5N) and Glc3Man9GlcNAc, (G3M9N2) were added to separate 1.5 ml centrifuge tubes with varying concentrations of imino sugar and dried under vacuum. […] Similarly, α-glucosidase II was incubated for 2 hours with G2M5N and 20 minutes with G1M5N. […] The reactions were stopped by the addition of 30 μl acetonitrile.

α-glucosidase II = biological target: T2, α-glucosidase II (Rattus norvegicus, UniProt A0A8I6GFL3); assay: In vitro inhibition of purified α-glucosidase II, (a) and (b) activities, 2-AA-labeled FOS substrates, HPLC; type: biochemical
T2 construct: Purified α-glucosidase I and II were purified from rat liver by known methods; from tissue; host or cells: rat liver
T2 sequence (A0A8I6ADW9 1-525 partner): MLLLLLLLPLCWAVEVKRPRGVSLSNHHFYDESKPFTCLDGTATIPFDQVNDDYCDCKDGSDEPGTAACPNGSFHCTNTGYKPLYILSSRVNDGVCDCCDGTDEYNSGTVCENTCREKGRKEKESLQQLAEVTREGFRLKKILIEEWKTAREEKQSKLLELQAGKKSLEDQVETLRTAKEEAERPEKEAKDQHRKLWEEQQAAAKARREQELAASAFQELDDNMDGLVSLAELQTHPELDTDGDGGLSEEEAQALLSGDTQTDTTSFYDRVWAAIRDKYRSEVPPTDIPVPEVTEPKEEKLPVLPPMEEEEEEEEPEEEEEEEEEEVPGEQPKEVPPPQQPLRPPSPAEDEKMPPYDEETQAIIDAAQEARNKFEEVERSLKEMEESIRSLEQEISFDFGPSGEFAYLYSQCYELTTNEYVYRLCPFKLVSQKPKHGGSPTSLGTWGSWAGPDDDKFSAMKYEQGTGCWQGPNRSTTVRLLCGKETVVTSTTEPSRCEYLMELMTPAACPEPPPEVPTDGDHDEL
Description: as §1
Purified α-glucosidase I and II were purified from rat liver by known methods. […] 2-AA-labeled FOS were isolated and purified as substrates for either α-glucosidase I or II. […] […] […] […] The reactions were stopped by the addition of 30 μl acetonitrile.

[1] = physiologically relevant substrates

- more potent in inhibiting glucosidase I than glucosidase II (a) (α-glucosidase I; heptamannose substrates): over 300 times
- more potent in inhibiting glucosidase I than glucosidase II (b) (α-glucosidase I; heptamannose substrates): more than 500 times
- inhibition of α-glucosidase I improved in comparison to NB-DNJ (α-glucosidase I; pentamannose substrate): 40 fold
- inhibition better for α-glucosidase I than α-glucosidase II (a) (α-glucosidase I; pentamannose substrates): 20 times
- inhibition better for α-glucosidase I than α-glucosidase II (b) (α-glucosidase I; pentamannose substrates): 50 times
- better at inhibiting glucosidase I than glucosidase II (a) and (b) activity (α-glucosidase I; [1]): 300-500 times
- better than NB-DNJ in inhibiting all triglucosylated structures (α-glucosidase I; [1]): 25-50 times
- IC50 (α-glucosidase I; α-Glucosidase I Glc3Man5GlcNAc1 IC50, pentamannose substrate Glc3Man5GlcNAc1): 17 ± 1 nM
- IC50 (α-glucosidase I; α-Glucosidase I Glc3Man7GlcNAc1 IC50, heptamannose substrate Glc3Man7GlcNAc1): 37 ± 1 nM
- IC50 (α-glucosidase I; α-Glucosidase I Glc3Man9GlcNAc1 IC50, nonamannose substrate Glc3Man9GlcNAc1): 22 ± 2 nM
- IC50 (α-glucosidase II; heptamannose substrate Glc1Man7GlcNAc1, read-out: α-Glucosidase II (b) Glc1Man7GlcNAc1 IC50): 19200 ± 60 nM
- IC50 (α-glucosidase II; heptamannose substrate Glc2Man7GlcNAc1, read-out: α-Glucosidase II (a) Glc2Man7GlcNAc1 IC50): 11700 ± 700 nM
- IC50 (α-glucosidase II; pentamannose substrate Glc1Man5GlcNAc1, read-out: α-Glucosidase II (b) Glc1Man5GlcNAc1 IC50): 833 ± 180 nM
- IC50 (α-glucosidase II; pentamannose substrate Glc2Man5GlcNAc1, read-out: α-Glucosidase II (a) Glc2Man5GlcNAc1 IC50): 300 ± 100 nM
Structure (SMILES): [N-]=[N+]=Nc1ccc(NCCCCCCN2C[C@H](O)[C@@H](O)[C@H](O)[C@H]2CO)c([N+](=O)[O-])c1 [NAP-DNJ, N—(N′-{4′azido-2′-nitrophenyl)-6-aminohexyl)-deoxynojirimycin]
